Laboratory results taken from patent US7713994B2 (Wyeth LLC, priority 2005, dated 2010).
Structures can show the parent of a compound that is named as a salt. Values belong to the compound of their own block, whether it stands above or below them.

Tests used:
BT474 = assay: Cytotoxicity assay (SRB), BT474; assay type: cell-based; details: BT474 cells, SRB, 6 days; read-out: In Vitro Cellular Activity IC50 BT474
Outline: (§1)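 Cells were seeded overnight in RPMI 1640 with 5% FBS at 37 °C, 7% CO2 (12000/well BT474, 4000 HCT-116, 6000 LoVo, 6000 MCF-7), then exposed to compound dilutions for 3 days (6 days for BT474). Survival versus untreated controls was measured by TCA fixation and SRB staining at 540 nm.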

HCT-116 = assay: Cytotoxicity assay (SRB), HCT-116; assay type: cell-based; details: HCT116 cells, SRB, three days; read-out: In Vitro Cellular Activity IC50 HCT116
Outline: as §1

MCF-7 = assay: Cytotoxicity assay (SRB), MCF-7; assay type: cell-based; details: MCF-7 cells, SRB, three days; read-out: In Vitro Cellular Activity IC50 MCF-7
Outline: as §1

cyclin B/CDK1 enzyme = target: T1, cyclin B/CDK1 enzyme (Homo sapiens, UniProt P06493); assay: CDK1 ELISA kinase assay (phospho-Rb ser 795 detection); assay type: biochemical; details: In Vitro Enzyme Assays, read-out: CDK1 IC50
T1 construct: purchased New England BioLabs; host or cells: Sf9 insect cells, recombinant baculovirus
T1 sequence (P06493 whole entry): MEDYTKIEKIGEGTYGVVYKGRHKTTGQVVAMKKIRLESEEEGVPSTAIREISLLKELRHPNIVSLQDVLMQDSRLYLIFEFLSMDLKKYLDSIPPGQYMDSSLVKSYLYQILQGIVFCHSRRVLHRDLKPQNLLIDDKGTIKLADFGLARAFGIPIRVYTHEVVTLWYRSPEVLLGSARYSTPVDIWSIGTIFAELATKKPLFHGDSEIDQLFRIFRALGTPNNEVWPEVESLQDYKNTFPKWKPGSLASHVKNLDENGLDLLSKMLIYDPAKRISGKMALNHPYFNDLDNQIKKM
T1 sequence (P14635 whole entry partner): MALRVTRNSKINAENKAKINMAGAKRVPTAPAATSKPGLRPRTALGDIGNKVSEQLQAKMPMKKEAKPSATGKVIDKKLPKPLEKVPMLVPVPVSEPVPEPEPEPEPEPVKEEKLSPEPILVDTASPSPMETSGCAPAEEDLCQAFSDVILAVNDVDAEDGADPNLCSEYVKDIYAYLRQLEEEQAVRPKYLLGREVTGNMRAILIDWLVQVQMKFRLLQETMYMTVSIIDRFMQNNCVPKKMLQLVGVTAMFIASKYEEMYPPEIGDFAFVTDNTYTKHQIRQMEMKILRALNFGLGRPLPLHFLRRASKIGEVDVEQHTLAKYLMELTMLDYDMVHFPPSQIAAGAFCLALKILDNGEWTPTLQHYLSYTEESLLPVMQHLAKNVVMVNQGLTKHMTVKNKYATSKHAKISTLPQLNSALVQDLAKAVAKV
Outline: (§2)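 Wells were coated overnight with GST-Rb C-terminal fragment, then blocked. Compound (10 ug/ml final) and cyclin/CDK enzyme from baculovirus-infected Sf9 cells with 200 μM ATP reacted 1 h at 30° C. Ser795 phosphorylation was detected by ELISA at 450 nm.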

LoVo = assay: Cytotoxicity assay (SRB), LoVo; assay type: cell-based; details: LoVo cells, SRB, three days; read-out: In Vitro Cellular Activity IC50 LOVO
Outline: as §1

cyclin D1/cdk 4 enzyme = target: T2, cyclin D1/cdk 4 enzyme (Homo sapiens, UniProt P11802); assay: CDK4 ELISA kinase assay (phospho-Rb ser 795 detection); assay type: biochemical; details: In Vitro Enzyme Assays, 200 μM ATP, read-out: CDK4 IC50
T2 construct: made in house; host or cells: Sf9 insect cells, recombinant baculovirus
T2 sequence (P11802 whole entry, species assumed): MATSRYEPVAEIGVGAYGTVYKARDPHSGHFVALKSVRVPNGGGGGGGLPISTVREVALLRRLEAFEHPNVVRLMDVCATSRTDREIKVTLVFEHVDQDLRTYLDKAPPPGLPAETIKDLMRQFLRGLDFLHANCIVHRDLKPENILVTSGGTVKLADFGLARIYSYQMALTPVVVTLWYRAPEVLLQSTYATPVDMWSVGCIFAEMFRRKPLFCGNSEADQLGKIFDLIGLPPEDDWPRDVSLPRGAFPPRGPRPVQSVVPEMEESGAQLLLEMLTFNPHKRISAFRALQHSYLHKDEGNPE
T2 sequence (P24385 whole entry partner, species assumed): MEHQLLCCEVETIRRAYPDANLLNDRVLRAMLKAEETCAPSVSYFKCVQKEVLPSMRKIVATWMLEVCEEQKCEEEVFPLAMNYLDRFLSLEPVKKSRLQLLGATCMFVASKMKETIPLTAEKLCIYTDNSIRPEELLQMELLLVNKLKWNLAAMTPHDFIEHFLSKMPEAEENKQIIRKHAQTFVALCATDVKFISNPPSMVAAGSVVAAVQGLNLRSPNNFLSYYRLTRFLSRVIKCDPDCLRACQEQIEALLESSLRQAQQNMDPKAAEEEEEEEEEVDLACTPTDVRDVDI
Outline: as §2

cyclin E/CDK2 enzyme = target: T3, cyclin E/CDK2 enzyme (Homo sapiens, UniProt P24941); assay: CDK2 ELISA kinase assay (phospho-Rb ser 795 detection); assay type: biochemical; details: In Vitro Enzyme Assays, read-out: CDK2 IC50
T3 construct: made in house; host or cells: Sf9 insect cells, recombinant baculovirus
Outline: as §2

melting point: 207 to 210 °C
Compound: CN1CCN(CCCNC=C2C(=O)NC(=O)c3ccc(-n4cccc4)cc32)CC1 (as salt: TFA) [Example 279, 4-{[3-(4-Methyl-piperazin-1-yl)-propylamino]-methylene}-6-pyrrol-1-yl-4H-isoquinoline-1,3-dione]

melting point: 193 to 194 °C
Compound: C[C@@H]1CN(c2ccc(N/C=C3\C(=O)NC(=O)c4ccc(-c5ccc(F)cc5)cc43)cc2)C[C@H](C)N1 (as salt: sodium) [Example 205, (4Z)-4-({[4-(3,5-Dimethylpiperazin-1-yl)phenyl]amino}methylene)-6-(4-fluorophenyl)-isoquinoline-1,3(2H,4H)-dione]

melting point: 164 to 165 °C
Compound: C[C@@H]1CN(c2ccc(N/C=C3\C(=O)NC(=O)c4ccc(-c5ccsc5)cc43)cc2)C[C@H](C)N1 (as salt: sodium) [Example 206, (4Z)-4-({[4-(3,5-Dimethylpiperazin-1-yl)phenyl]amino}methylene)-6-thien-3-ylisoquinoline-1,3(2H,4H)-dione]

melting point: 199 to 200 °C
Compound: C[C@@H]1CN(c2ccc(N/C=C3\C(=O)NC(=O)c4ccc(-c5ccoc5)cc43)cc2)C[C@H](C)N1 (as salt: sodium) [Example 207, (4Z)-4-({[4-(3,5-Dimethylpiperazin-1-yl)phenyl]amino}methylene)-6-(3-furyl)iso-quinoline-1,3(2H,4H)-dione]

melting point: 239 to 240 °C
Compound: COc1ccc(CN/C=C2\C(=O)NC(=O)c3ccc(-c4ccc(F)cc4)cc32)cc1O (as salt: sodium) [Example 208, (4Z)-6-(4-Fluorophenyl)-4-{[(3-hydroxy-4-methoxybenzyl)amino]methylene}iso-quinoline-1,3(2H,4H)-dione]

melting point: 204 to 205 °C
Compound: COc1ccc(CN/C=C2\C(=O)NC(=O)c3ccc(-c4cccc(F)c4)cc32)cc1O (as salt: sodium) [Example 209, (4Z)-6-(3-Fluorophenyl)-4-{[(3-hydroxy-4-methoxybenzyl)amino]methylene}iso-quinoline-1,3(2H,4H)-dione]

melting point: 190 to 191 °C
Compound: CN1CCN(c2ccc(N/C=C3\C(=O)NC(=O)c4ccc(-c5ccoc5)cc43)cc2)CC1 (as salt: sodium) [Example 236, (4Z)-6-(3-Furyl)-4-({[4-(4-methylpiperazin-1-yl)phenyl]amino}methylene)isoquinoline-1,3(2H,4H)-dione]

melting point: 228 to 229 °C
Compound: CN1CCN(c2ccc(N/C=C3\C(=O)NC(=O)c4ccc(-c5ccc(F)cc5)cc43)cc2)CC1 (as salt: sodium) [Example 263, (4Z)-6-(4-Fluorophenyl)-4-({[4-(4-methylpiperazin-1-yl)phenyl]amino}methylene)-isoquinoline-1,3(2H,4H)-dione]

Continued, compound first:

Compound: CN1CCN(c2ccc(N/C=C3\C(=O)NC(=O)c4ccccc43)cc2)CC1
melting point: 245 to 246 °C

Compound: COc1ccc(CN/C=C2\C(=O)NC(=O)c3ccc(Cl)cc32)cc1O (as salt: hydrochloride) [Example 67, (4Z)-6-Chloro-4-{[(3-hydroxy-4-methoxybenzyl)amino]methylene}isoquinoline-1,3(2H,4H)-dione]
melting point: 265 to 266 °C

Compound: COc1ccc(CN/C=C2\C(=O)NC(=O)c3ccc(I)cc32)cc1O (as salt: hydrochloride) [Example 80, (4Z)-6-Iodo-4-{[(3-hydroxy-4-methoxybenzyl)amino]methylene}isoquinoline-1,3(2H,4H)-dione]
melting point: 209 to 210 °C

Compound: COc1ccc(CN/C=C2\C(=O)NC(=O)c3ccc(-c4ccsc4)cc32)cc1O (as salt: hydrochloride) [Example 88, (4Z)-4-{[(3-Hydroxy-4-methoxybenzyl)amino]methylene}-6-thien-3-ylisoquinoline-1,3(2H,4H)-dione]
melting point: 219 to 220 °C

Compound: COc1ccc(CN/C=C2\C(=O)NC(=O)c3ccccc32)cc1O (as salt: hydrochloride) [Example 98, (4Z)-4-{[(3-Hydroxy-4-methoxybenzyl)amino]methylene}isoquinoline-1,3(2H,4H)-dione]
melting point: 192 to 193 °C

Compound: O=C1NC(=O)c2ccc(Br)cc2/C1=C/NCc1ccc(OCCO)c(O)c1 (as salt: potassium) [Example 139, (4Z)-6-Bromo-4-({[3-hydroxy-4-(2-hydroxyethoxy)benzyl]amino}methylene)isoquinoline-1,3(2H,4H)-dione]
melting point: 166 to 167 °C

Compound: CC(=O)Nc1ccc(CN/C=C2\C(=O)NC(=O)c3ccc(I)cc32)cc1O (as salt: potassium) [Example 151, N-[2-Hydroxy-4-({[(Z)-(6-iodo-1,3-dioxo-2,3-dihydroisoquinolin-4(1H)-′ylidene)methyl]amino}methyl)phenyl]acetamide]
melting point: 345 to 346 °C

Compound: CCCOc1ccc(CN/C=C2\C(=O)NC(=O)c3ccc(-c4cccc(F)c4)cc32)cc1O (as salt: sodium) [Example 193, (4Z)-6-(3-Fluorophenyl)-4-{[(3-hydroxy-4-propoxybenzyl)amino]methylene}-isoquinoline-1,3(2H,4H)-dione]
melting point: 209 to 210 °C

Compound: CCCOc1ccc(CN/C=C2\C(=O)NC(=O)c3ccc(-c4ccc(F)c(F)c4)cc32)cc1O (as salt: sodium) [Example 194, (4Z)-6-(3,4-Difluorophenyl)-4-{[(3-hydroxy-4-propoxybenzyl)amino]methylene}-isoquinoline-1,3(2H,4H)-dione]
melting point: 227 to 228 °C

Compound: O=C1NC(=O)c2ccc(-c3ccsc3)cc2/C1=C/Nc1ccc(CN2CCCCC2)cc1 (hydrate or solvate) [Example 104, (4Z)-4-({[4-(Piperidin-1-ylmethyl)phenyl]amino}methylene)-6-thien-3-ylisoquinoline-1,3(2H,4H)-dione]
melting point: 166 to 167 °C

Compound: COc1ccc(-c2ccc3c(c2)/C(=C/Nc2ccc(N4CCN(C)CC4)cc2)C(=O)NC3=O)cc1 (hydrate or solvate) [Example 114, (4Z)-6-(4-methoxyphenyl)-4-({[4-(4-methylpiperazin-1-yl)phenyl]amino}methylene)-isoquinoline-1,3(2H,4H)-dione]
melting point: 224 to 225 °C

Compound: (4Z)-6-Piperidin-1-yl-4-({[4-(methylPiperzin-1-yl)phenyl]amino}methylene)isoquinoline-1,3(2H,4H)-dione [Example 119]
IC50 (BT474): 7500 nM
IC50 (HCT-116): 3300 nM
IC50 (MCF-7): 6.2 µM
IC50 (cyclin B/CDK1 enzyme): > 50 µM
IC50 (LoVo): 7300 nM
IC50 (cyclin D1/cdk 4 enzyme): 1620 nM
IC50 (cyclin E/CDK2 enzyme): > 50 µM

Compound: PEG5000thio-acetic acid 5-{[(6-bromo-1,3-dioxo-2,3-dihydro-1H-isoquinolin-4-ylidenemethyl)-amino]-methyl}-2-propoxy-phenyl ester [Example 228]
IC50 (BT474): ~1200 nM
IC50 (HCT-116): ~2100 nM
IC50 (MCF-7): ~8.6 µM
IC50 (cyclin B/CDK1 enzyme): > 50 µM
IC50 (LoVo): ~2500 nM
IC50 (cyclin D1/cdk 4 enzyme): ~1500 nM
IC50 (cyclin E/CDK2 enzyme): > 50 µM

Compound: PEG5000thio-acetic acid 5-{[(6-iodo-1,3-dioxo-2,3-dihydro-1H-isoquinolin-4-ylidenemethyl)-amino]-methyl}-2-propoxy-phenyl ester [Example 292]
IC50 (BT474): ~900 nM
IC50 (HCT-116): ~1200 nM
IC50 (MCF-7): ~6.5 µM
IC50 (cyclin B/CDK1 enzyme): ~19.7 µM
IC50 (LoVo): ~1200 nM
IC50 (cyclin D1/cdk 4 enzyme): ~1500 nM
IC50 (cyclin E/CDK2 enzyme): ~33.9 µM
